One assay has as its target T1, hCB2 (Homo sapiens, UniProt P34972).
T1 construct: expressed in transfected cells
As to the kind of experiment: GTPγ[35S] binding assay, agonist properties on hCB2. In kind it is biochemical.

Assay [1] deals with T2, un-spliced human CB 1 receptor (Homo sapiens, UniProt P21554).
T2 construct: expressed in transfected cells
As to the kind of experiment: FLIPR intracellular calcium mobilization assay (Fluo-3), HEK-293S cells expressing un-spliced hCB1 receptor and Gα16. In kind it is cell-based. A general note: Calcium flux is commonly read through the fluorescence of an indicator in the cells.

Another assay concerns the target T3, hCB1 (Homo sapiens, UniProt P21554).
T3 construct: expressed in transfected cells
As to the kind of experiment: biochemical. In kind it is biochemical.

In assay [2] the target is T4, hCB1b (Homo sapiens, UniProt P21554).
T4 construct: expressed in transfected cells
As to the kind of experiment: biochemical. In kind it is biochemical.

Another assay concerns the target T5, hCB1a (Homo sapiens, UniProt P21554).
T5 construct: expressed in transfected cells
As to the kind of experiment: biochemical. In kind it is biochemical.

Assay [3] deals with T4, hCB1b. As to the kind of experiment: FLIPR intracellular calcium mobilization assay (Fluo-3), HEK-293S cells expressing human CB1b receptor and Gα16. In kind it is cell-based. As to the method:
In order to assess the functionality of the human CB1b receptor variant, a functional assay was performed with FLIPR (Fluorescent Imaging Plate Reader, Molecular Devices) using the fluorescent calcium indicator Fluo-3 (Molecular Probes) on a 96 well platform. […] On the day of the experiment, the cells were initially washed once with Hank's buffer (pH7.4) containing 20 mM Hepes and 0.1% BSA (HBSS buffer) and subsequently loaded with fluorescent solution (HBSS buffer, 4 μM Fluor-3 and 0.04% pluronic acid). The cells were incubated at 37° C. for 1 hour in a humidified chamber. Following the incubation step, cells were washed five times with HBSS buffer. […] A range of other natural and synthetic cannabinoid ligands were also tested.

Where [4] appears, read: agonist, GTPγ[35S] binding assay, read-out: EC50 hCB1.
Where [5] appears, read: agonist, GTPγ[35S] binding assay, read-out: EC50 hCB1b.
Where [6] appears, read: agonist, GTPγ[35S] binding assay, read-out: EC50 hCB1a.

For six compounds, EC50 results are on record in patent US20060115816A1, “Splice variant cannabinoid receptor (cb1b)” (priority 2002, published 2006).

Like-named read-outs stand apart in the source and are kept apart here.

T5 sequence (P21554 1-411 isoform P21554-2): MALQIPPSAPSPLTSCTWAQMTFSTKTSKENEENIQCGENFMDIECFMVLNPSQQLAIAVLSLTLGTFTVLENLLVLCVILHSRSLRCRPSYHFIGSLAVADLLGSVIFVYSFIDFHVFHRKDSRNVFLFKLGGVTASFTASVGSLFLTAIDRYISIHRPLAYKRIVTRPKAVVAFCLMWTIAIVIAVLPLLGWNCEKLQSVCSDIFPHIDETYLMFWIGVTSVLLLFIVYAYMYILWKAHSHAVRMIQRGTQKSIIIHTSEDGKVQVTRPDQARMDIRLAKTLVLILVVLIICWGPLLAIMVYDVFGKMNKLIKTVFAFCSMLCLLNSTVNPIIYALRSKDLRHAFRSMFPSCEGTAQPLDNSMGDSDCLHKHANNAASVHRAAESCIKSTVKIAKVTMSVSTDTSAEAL
T4 sequence (P21554 1-439 isoform P21554-3): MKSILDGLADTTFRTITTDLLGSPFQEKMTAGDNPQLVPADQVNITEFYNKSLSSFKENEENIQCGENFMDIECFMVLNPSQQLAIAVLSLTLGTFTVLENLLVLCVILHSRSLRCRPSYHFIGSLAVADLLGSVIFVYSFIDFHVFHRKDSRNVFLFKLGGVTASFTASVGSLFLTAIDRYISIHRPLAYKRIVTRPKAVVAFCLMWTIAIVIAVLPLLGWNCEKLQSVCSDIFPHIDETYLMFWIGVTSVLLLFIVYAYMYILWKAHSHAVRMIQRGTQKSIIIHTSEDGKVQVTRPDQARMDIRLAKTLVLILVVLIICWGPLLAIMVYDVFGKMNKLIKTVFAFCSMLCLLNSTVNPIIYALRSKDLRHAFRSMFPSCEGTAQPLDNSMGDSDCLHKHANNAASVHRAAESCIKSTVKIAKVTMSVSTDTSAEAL
T3 sequence (P21554 whole entry): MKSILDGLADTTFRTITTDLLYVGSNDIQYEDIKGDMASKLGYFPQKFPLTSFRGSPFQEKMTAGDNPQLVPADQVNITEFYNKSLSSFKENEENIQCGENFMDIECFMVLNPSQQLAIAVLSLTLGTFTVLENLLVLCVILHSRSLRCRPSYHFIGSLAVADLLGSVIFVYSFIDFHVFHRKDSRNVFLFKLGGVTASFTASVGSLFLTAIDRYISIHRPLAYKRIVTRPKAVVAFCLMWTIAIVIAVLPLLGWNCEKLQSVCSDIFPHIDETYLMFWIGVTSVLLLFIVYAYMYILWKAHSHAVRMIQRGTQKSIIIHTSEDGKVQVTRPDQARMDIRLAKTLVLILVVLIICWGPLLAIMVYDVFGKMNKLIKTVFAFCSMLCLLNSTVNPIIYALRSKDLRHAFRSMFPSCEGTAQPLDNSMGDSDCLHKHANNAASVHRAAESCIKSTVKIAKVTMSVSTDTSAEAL
T1 sequence (P34972 whole entry): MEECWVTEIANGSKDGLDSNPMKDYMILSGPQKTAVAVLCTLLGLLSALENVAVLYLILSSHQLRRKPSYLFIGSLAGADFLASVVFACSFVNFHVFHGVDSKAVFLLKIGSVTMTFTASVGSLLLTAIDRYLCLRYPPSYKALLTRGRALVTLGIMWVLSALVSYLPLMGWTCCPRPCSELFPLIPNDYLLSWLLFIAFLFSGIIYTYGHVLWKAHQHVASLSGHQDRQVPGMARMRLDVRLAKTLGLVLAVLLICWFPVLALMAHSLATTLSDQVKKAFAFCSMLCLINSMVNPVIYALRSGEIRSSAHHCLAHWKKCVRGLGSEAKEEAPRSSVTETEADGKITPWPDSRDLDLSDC
T2 sequence (P21554 whole entry, canonical isoform): as the sequence (P21554 whole entry) above

A word on the EC50: it is the concentration at which the effect is half-maximal. For the compound `CCCCC/C=C\C/C=C\C/C=C\C/C=C\CCCC(=O)OC(CO)CO` [2-arachodonylglycerol], it took 1690 nM to reach a half-maximal effect on hCB2 (EC50).

As for `CCCCCCC(C)(C)c1cc(O)c2c(c1)OC(C)(C)[C@@H]1CC=C(CO)C[C@@H]21` [Hu210], the EC50 in assay [1] was found to be 0.06 nM; on hCB1 it was 0.06 nM; on hCB1b [2] it was 0.15 nM; on hCB1a, 0.2 nM; on hCB1b [3], 0.15 nM.

Turning to `CCCC(C)(C)c1ccc2c(c1)OC(C)(C)[C@@H]1CC=C(C)C[C@@H]21` [JWH133], the EC50 at hCB1 (setting [4]) is over 1000 nM; on hCB1b [2] (setting [5]), over 1000 nM; at hCB1a (setting [6]), over 1000 nM; at hCB2 it was 1.8 nM.

In the case of `CCCCC/C=C\C/C=C\C/C=C\C/C=C\CCCCOC(CO)CO` [Noladin Ether], the concentration for a half-maximal effect (EC50) was 5.1 nM at hCB1 (read-out: EC50 hCB1), over 1000 nM on hCB1b [2] (read-out: EC50 hCB1b), over 1000 nM at hCB1a (read-out: EC50 hCB1a) and over 1000 nM on hCB2.

Consider `CCCCCCCCCCCCCCCC(=O)NCCO` [Palmitoylethanolamine], for which the EC50 on hCB1 (setting [4]) is over 1000 nM; on hCB1b [2] (setting [5]), over 1000 nM; on hCB1a (setting [6]), over 1000 nM; at hCB2, 349 nM.

For the compound `CCCCC/C=C\C/C=C\C/C=C\C/C=C\CCCC(=O)OCCN` [Virodhamine], the EC50 on hCB1 (setting [4]) is 934 nM; on hCB1b [2] (setting [5]), over 1000 nM; on hCB1a (setting [6]) it was over 1000 nM; at hCB2, 1310 nM.
